Patent US20260184710A1, “CASITAS B-LINEAGE LYMPHOMA PROTOONCOGENE B (CBL-B) DEGRADING COMPOUNDS AND ASSOCIATED METHODS OF USE” (Arvinas Operations, Inc., priority 2022, published 2026)

Key:
Cbl-b [1] = biological target: T1, Cbl-b (Homo sapiens, UniProt Q13191); experiment: Cbl-b Degradation Method A (FACS, anti-Cbl-b antibody staining); type: cell-based; details: Cbl-b-HiBit KI Jurkat Cells, incubated at least 20 hours; for DC50: half maximal degradation, read-out: Cbl-b Degredation Method A IC50; for Dmax: Jurkat, maximum degradation observed, read-out: Cbl-b Degredation Method A Dmax (%)
T1 construct: Cbl-b-HiBit KI Jurkat Cells were purchased from Promega; host or cells: Cbl-b-HiBiT knock-in Jurkat cells
Summary of the method: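 Readout is flow cytometry of fixed, permeabilized cells immunostained for Cbl-b (primary 1:200, AF488 secondary). Cells were Cbl-b-HiBit knock-in Jurkat, exposed to compound ≥20 h at 37 °C; half-maximal degradation concentration (DC50) and maximal degradation (Dmax) calculated relative to control.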

Cbl-b [2] = biological target: T1, Cbl-b; experiment: Cbl-b Degradation Method B (Nano-Glo HiBiT lytic detection); type: cell-based; details: Cbl-b-HiBit KI Jurkat Cells, incubated at least 6-24 hours; for DC50: half maximal degradation, read-out: Cbl-b Degredation Method B IC50; for Dmax: read-out: Cbl-b Degredation Method B Dmax (%)
Summary of the method: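 An 11-point, 3-fold compound dilution was applied for 6-24 hours to Jurkat cells carrying HiBiT-tagged endogenous Cbl-b. Lytic HiBiT luminescence quantified residual protein. Outputs are DC50 and Dmax relative to DMSO control.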

T1 sequence (Q13191 whole entry): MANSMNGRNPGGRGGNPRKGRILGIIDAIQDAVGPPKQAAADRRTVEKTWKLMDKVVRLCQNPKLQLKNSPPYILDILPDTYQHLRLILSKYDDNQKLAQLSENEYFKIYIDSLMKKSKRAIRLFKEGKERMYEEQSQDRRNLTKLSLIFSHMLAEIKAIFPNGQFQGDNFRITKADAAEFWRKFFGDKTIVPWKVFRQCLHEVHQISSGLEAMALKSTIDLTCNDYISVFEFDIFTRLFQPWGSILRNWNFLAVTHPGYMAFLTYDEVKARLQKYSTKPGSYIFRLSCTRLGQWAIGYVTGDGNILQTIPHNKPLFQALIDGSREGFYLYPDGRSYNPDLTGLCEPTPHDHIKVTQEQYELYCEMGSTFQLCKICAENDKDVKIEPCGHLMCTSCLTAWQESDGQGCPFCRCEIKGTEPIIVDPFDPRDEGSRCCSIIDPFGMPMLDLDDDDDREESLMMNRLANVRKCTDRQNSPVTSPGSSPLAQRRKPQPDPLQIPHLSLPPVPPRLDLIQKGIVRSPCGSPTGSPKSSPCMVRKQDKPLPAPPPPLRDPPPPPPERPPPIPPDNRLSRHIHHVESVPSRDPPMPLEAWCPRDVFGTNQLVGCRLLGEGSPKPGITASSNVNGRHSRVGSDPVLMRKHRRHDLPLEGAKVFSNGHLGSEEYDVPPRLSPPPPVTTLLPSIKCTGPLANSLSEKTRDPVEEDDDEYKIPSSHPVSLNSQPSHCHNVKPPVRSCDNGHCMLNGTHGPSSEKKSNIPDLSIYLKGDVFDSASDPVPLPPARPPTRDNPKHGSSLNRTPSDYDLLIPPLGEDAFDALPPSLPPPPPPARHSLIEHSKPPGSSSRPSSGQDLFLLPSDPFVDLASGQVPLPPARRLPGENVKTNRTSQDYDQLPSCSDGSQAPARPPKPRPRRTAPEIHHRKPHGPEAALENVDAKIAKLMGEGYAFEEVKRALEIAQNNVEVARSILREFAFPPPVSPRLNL

Compound	DC50 (Cbl-b [1])	Dmax (Cbl-b [1])	DC50 (Cbl-b [2])	Cbl-b Degredation Method B Dmax (%) (Cbl-b [2]; maximum degradation observed)	Dmax (Cbl-b [2]; maximum degradation observed)
Cn1cnnc1CC1(c2cccc(N3Cc4c(cc(CN5CCC(CN6CCN(c7cccc8c7C(=O)N(C7CCC(=O)NC7=O)C8=O)CC6)CC5)cc4C(F)(F)F)C3=O)c2)COC1 (stereo not shown) [Example 88, 2-(2,6-dioxopiperidin-3-yl)-4-(4-((1-((2-(3-(3-((4-methyl-4H-1,2,4-triazol-3-yl)methyl)oxetan-3-yl)phenyl)-3-oxo-7-(trifluoromethyl)isoindolin-5-yl)methyl)piperidin-4-yl)methyl)piperazin-1-yl)isoindoline-1,3-dione]	> 500 nM		> 500 nM		
Cn1cnnc1CC1(c2cccc(N3Cc4c(cc(N5CCN(CC6CCN(c7ccc8c(c7)C(=O)N(C7CCC(=O)NC7=O)C8=O)CC6)CC5)cc4C(F)(F)F)C3=O)c2)COC1 (stereo not shown) [Example 122, 2-(2,6-dioxopiperidin-3-yl)-5-[4-({4-[2-(3-{3-[(4-methyl-4H-1,2,4-triazol-3-yl)methyl]oxetan-3-yl}phenyl)-3-oxo-7-(trifluoromethyl)-2,3-dihydro-1H-isoindol-5-yl]piperazin-1-yl}methyl)piperidin-1-yl]-2,3-dihydro-1H-isoindole-1,3-dione]	50 to 500 nM		> 500 nM		
Cn1cnnc1CC1(c2cccc(N3Cc4c(cc(N5CCC(C6CN(c7ccc8c(c7)C(=O)N(C7CCC(=O)NC7=O)C8=O)C6)CC5)cc4C(F)(F)F)C3=O)c2)COC1 (stereo not shown) [Example 128, 2-(2,6-dioxopiperidin-3-yl)-5-(3-{1-[2-(3-{3-[(4-methyl-4H-1,2,4-triazol-3-yl)methyl]oxetan-3-yl}phenyl)-3-oxo-7-(trifluoromethyl)-2,3-dihydro-1H-isoindol-5-yl]piperidin-4-yl}azetidin-1-yl)-2,3-dihydro-1H-isoindole-1,3-dione]	> 500 nM		> 500 nM		
Cn1cnnc1CC1(c2cccc(N3Cc4c(cc(CN5CCC(N6CC7(CN(c8ccc9c(c8)C(=O)N(C8CCC(=O)NC8=O)C9=O)C7)C6)CC5)cc4C(F)(F)F)C3=O)c2)COC1 (stereo not shown) [Example 106, 2-(2,6-dioxopiperidin-3-yl)-5-[6-(1-{[2-(3-{3-[(4-methyl-4H-1,2,4-triazol-3-yl)methyl]oxetan-3-yl}phenyl)-3-oxo-7-(trifluoromethyl)-2,3-dihydro-1H-isoindol-5-yl]methyl}piperidin-4-yl)-2,6-diazaspiro[3.3]heptan-2-yl]-2,3-dihydro-1H-isoindole-1,3-dione]	50 to 500 nM	> 70%	> 500 nM		
Cn1cnnc1CC1(c2cccc(N3Cc4c(cc(N5CCC(CN6CC7(CCN(c8ccc9c(c8)C(=O)N(C8CCC(=O)NC8=O)C9=O)CC7)C6)CC5)cc4C(F)(F)F)C3=O)c2)COC1 (stereo not shown) [Example 11, 2-(2,6-dioxo-3-piperidyl)-5-[2-[[1-[2-[3-[3-[(4-methyl-1,2,4-triazol-3-yl)methyl]oxetan-3-yl]phenyl]-3-oxo-7-(trifluoromethyl)isoindolin-5-yl]-4-piperidyl]methyl]-2,7-diazaspiro[3.5]nonan-7-yl]isoindoline-1,3-dione]	5 to 50 nM	< 35%	5 to 50 nM		< 35%

Continued, values first:

DC50 (Cbl-b [1])	Dmax (Cbl-b [1])	DC50 (Cbl-b [2])	Cbl-b Degredation Method B Dmax (%) (Cbl-b [2]; maximum degradation observed)	Dmax (Cbl-b [2]; maximum degradation observed)	Compound
5 to 50 nM	35 to 70%	< 5 nM	C (C ≤ 35)		Cn1cnnc1C[C@]1(c2cccc(N3Cc4c(cc(CN5CCN(C[C@H]6CC[C@H](OC7CCN(c8cccc9c8n(C(F)F)c(=O)n9C8CCC(=O)NC8=O)CC7)CC6)CC5(C)C)cc4C(F)(F)F)C3=O)c2)C[C@H](C#N)C1 (stereo partly shown) [Example 324, (1r,3r)-3-(3-{6-[(2,2-dimethyl-4-{[(1r,4r)-4-({1-[3-(difluoromethyl)-1-(2,6-dioxopiperidin-3-yl)-2-oxo-2,3-dihydro-1H-1,3-benzodiazol-4-yl]piperidin-4-yl}oxy)cyclohexyl]methyl}piperazin-1-yl)methyl]-1-oxo-4-(trifluoromethyl)-2,3-dihydro-1H-isoindol-2-yl}phenyl)-3-[(4-methyl-4H-1,2,4-triazol-3-yl)methyl]cyclobutane-1-carbonitrile]
< 5 nM	> 70%	< 5 nM		> 70%	Cn1cnnc1CC1(c2cccc(-n3cc4c(C(F)(F)F)cc(CN5CCC[C@H](CN6CCN(C[C@H]7CC[C@@H](OC8CCN(c9ccc%10c(c9F)CN(C9CCC(=O)NC9=O)C%10=O)CC8)CC7)CC6)C5)cc4n3)c2)COC1 (stereo partly drawn) [Example 221, 3-[4-fluoro-1-oxo-5-(4-{[(1r,4r)-4-[(4-{[(3S)-1-{[2-(3-{3-[(4-methyl-4H-1,2,4-triazol-3-yl)methyl]oxetan-3-yl}phenyl)-4-(trifluoromethyl)-2H-indazol-6-yl]methyl}piperidin-3-yl]methyl}piperazin-1-yl)methyl]cyclohexyl]oxy}piperidin-1-yl)-2,3-dihydro-1H-isoindol-2-yl]piperidine-2,6-dione]
< 5 nM	> 70%	< 5 nM		35 to 70%	COc1c(N2CCC(O[C@H]3CC[C@H](CN4CCN(Cc5cc6c(c(C(F)(F)F)c5)CN(c5cccc([C@]7(Cc8nncn8C)C[C@@H](C#N)C7)c5)C6=O)CC4)CC3)CC2)ccc2c1CN(C1CCC(=O)NC1=O)C2=O (stereo partly shown) [Example 199, (1r,3r)-3-[(4-methyl-4H-1,2,4-triazol-3-yl)methyl]-3-(3-{1-oxo-6-[(4-{[(1r,4r)-4-({1-[2-(2,6-dioxopiperidin-3-yl)-4-methoxy-1-oxo-2,3-dihydro-1H-isoindol-5-yl]piperidin-4-yl}oxy)cyclohexyl]methyl}piperazin-1-yl)methyl]-4-(trifluoromethyl)-2,3-dihydro-1H-isoindol-2-yl}phenyl)cyclobutane-1-carbonitrile]
< 5 nM	> 70%	< 5 nM		> 70%	CC1c2nc(N3CCC(O[C@H]4CC[C@H](CN5CCN(Cc6cc7c(c(C(F)(F)F)c6)CN(c6cccc(C8(Cc9nncn9C)COC8)c6)C7=O)CC5(C)C)CC4)CC3)ccc2C(=O)N1C1CCC(=O)NC1=O (mixture of isomers) [Example 236, rac-3-[7-methyl-5-oxo-2-(4-{[(1r,4r)-4-[(2,2-dimethyl-4-{[2-(3-{3-[(4-methyl-4H-1,2,4-triazol-3-yl)methyl]oxetan-3-yl}phenyl)-3-oxo-7-(trifluoromethyl)-2,3-dihydro-1H-isoindol-5-yl]methyl}piperazin-1-yl)methyl]cyclohexyl]oxy}piperidin-1-yl)-5H,6H,7H-pyrrolo[3,4-b]pyridin-6-yl]piperidine-2,6-dione]
> 500 nM		> 500 nM			Cn1cnnc1CC1(c2cccc(N3Cc4c(cc(N5CC6(CCN(Cc7ccc8c(c7)C(=O)N(C7CCC(=O)NC7=O)C8=O)CC6)C5)cc4C(F)(F)F)C3=O)c2)COC1 (stereo not shown) [Example 130, 2-(2,6-dioxopiperidin-3-yl)-5-({2-[2-(3-{3-[(4-methyl-4H-1,2,4-triazol-3-yl)methyl]oxetan-3-yl}phenyl)-3-oxo-7-(trifluoromethyl)-2,3-dihydro-1H-isoindol-5-yl]-2,7-diazaspiro[3.5]nonan-7-yl}methyl)-2,3-dihydro-1H-isoindole-1,3-dione]
